Test results as given in patent US5317009A, “Anti-HIV proteins GAP 31, DAP 30 and DAP 32 and therapeutic uses thereof” (New York University, priority 1991, dated 1994).
“Also recorded” adds a separate entry of the source.

Legend:
cells [1] = test system: cells
[2] = test system: ribosome (rabbit reticulocyte lysate system); assay: Ribosome-inactivating activity: cell-free translation of globin mRNA in rabbit reticulocyte lysate; assay type: biochemical
Method: FIG. 5 is a graph showing the ribosome-inactivating activity of GAP 31, […] and DAP 32, measured as in vitro translation of globin mRNA in a rabbit reticulocyte system. Inhibition of protein synthesis was determined by measuring incorporation of [^3 H]leucine into TCA-insoluble material as a function of drug concentration. Results are from two independent experiments each run in duplicate. Average control values for leucine incorporation without added anti-HIV protein is 65,000 cpm/μl. Results are shown as % of control plotted against concentration of the added anti-HIV protein.
Ribosome-inactivating activity was measured by cell-free protein biosynthesis in a rabbit reticulocyte lysate system. The reaction was carried out in a total volume of 25 μl containing 2 mM magnesium acetate, 80 mM potassium acetate, 2.5 mM spermidine, 34.5 mg/ml creatine phosphate, 26 mg/ml GTP, 250 mM HEPES buffer, 1 μCi of [3H] leucine and 1 μg of globin mRNA. Incubation was conducted at 37° C. for 30 min. The translation products were resolved by TLC in a solvent system of methanol/water/TCA/glacial acetic acid (30/50/10/10, V/V/W/V). The incorporation of [^3 H] labeled leucine into TCA precipitable product was measured by scintillation counting.

HIV = conditions: literature; cited from earlier work
H9 cells = assay: Cytotoxicity to uninfected H9 cells (cellular DNA and protein synthesis); assay type: cell-based
Method: FIG. 4 is a graph showing the cytotoxic activity of GAP 31, DAP 30 and DAP 32, measured as cellular incorporation of [^3 H] thymidine or leucine into TCA-insoluble material in pulse labeling experiments. H9 cells were seeded at 2×10^4 cells/well and cultures pulsed with 1 μCi (1 Ci=37 GBq) of label 8 hr prior to harvesting at day 4. DNA or protein synthesis were measured by scintillation counting of the incorporation of labelled precursors. Results are normalized to values obtained for controls cultures without added anti-HIV proteins. Control values for thymidine uptake was 201,000 cpm and for leucine was 61,000 cpm. Results are the average triplicate values in two independent experiments.
The cytotoxicities of the SCRIPs were measured by their effects on cellular DNA and protein syntheses in uninfected H9 cells. Target cells were grown in the absence and presence of various amounts of SCRIPs. The cultures were pulse labeled with 1 μCi of [^3 H] labeled thymidine or leucine for 8 hours prior to harvesting on day 4. Cellular incorporation of these labeled precursors into trichloroacetic acid (TCA) precipitable products was determined by scintillation counting. Cell viability was determined by trypan blue dye exclusion. Toxicity to intact animals was determined by intraperitoneal injection (i.p.) of the SCRIPs into mice. […]

HIV-1 [3] = assay: Syncytia formation in infectious cell center assay (HIV-1 infection); assay type: cell-based, HIV-1 (CEM-ss indicator cells)
Text: FIG. 2 is a graph showing the effects of GAP 31, DAP 30 and DAP 32 on HIV-1 infection by inhibition of syncytia formation in an infectious cell center assay (ICC). Results represent average values of triplicates from two independent experiments. Triplicate wells of indicator cells containing the test compounds at each concentration without virus were also included for the determination of the cytotoxic and cytostatic activities of these anti-HIV proteins. Infectious cell centers (%ICC) are expressed in terms of Vn/Vo where Vn and Vo are average numbers of syncytia in the drug-treated and untreated samples respectively.
(§1) The anti-HIV activities of GAP 31, DAP 30, and DAP 32 were determined by microtiter syncytia formation in infectious cell center assay (Nara, P. L. et al., Nature 332:469-70 (1988)), viral core protein p24 expression (Nara, P. L. et al., AIDS Res. Human Retroviruses 3:283-302 (1987)), and viral-associated RT activity (Hoffman, A. D. et al., Virology 147:326-35 (1985)). […]
Freshly prepared indicator cells in culture medium at 5×10^4 in 100 μl were treated with 100 μl of SCRIP at various concentrations, for 90 min. […] Focal syncytium formation representing single infectious virion units was scored at day 5 by examination under an inverted microscope. […]

HIV-1 [4] = assay: Viral core protein p24 expression in H9 cell cultures (HIV-1 replication); assay type: cell-based, HIV-1 (H9 cells)
Method: (§2) FIG. 3 is a graph showing the effects of GAP 31, DAP 30 and DAP 32 on HIV-1 replication, measured by viral core antigen p24 expression and HIV-RT activity. p24 production was determined by RIA and expressed in ng/ml. Viral-RT activity was determined by the incorporation of [^3 H]dTTP into TCA-precipitable products and expressed as cpm×10^3 /ml. These values in control culture (without added plant proteins) were 2219 ng/ml and 846×10^3 cpm/ml, respectively, as determined in triplicates in two independent experiments. Results are normalized to values obtained in control cultures.
as §1
(§3) Assays of viral core protein p24 expression and HIV-RT activity were carried out in H9 cell cultures. […] The amount of p24 was measured by RIA and expressed in terms of ng/ml. HIV-RT activity was determined by the incorporation of [^3 H] labeled thymidine with poly(rA).p(dT)12-18 as primer-template and expressed in terms of cpm/ml.

CF1 mice = conditions: i.p.
HIV-1 [5] = assay: Viral-associated reverse transcriptase (HIV-RT) activity in H9 cell cultures; assay type: cell-based, HIV-1 (H9 cells)
Method: as §2, §1, §3

cells [6] = conditions: literature; cited from earlier work

SAP-6: a SCRIP isolated from Saponaria officinalis
toxicity (cytotoxicity) in words (cells [1]): relatively toxic

trichosanthin
toxicity (cytotoxicity) in words (cells [1]): toxic
Ribosome-inactivation, ID50 [2]: 3700 pM
anti-HIV activity (HIV): reduced viral antigen expression in, and were selectively toxic to, HIV-infected cells
Cytotoxicity, ID50 (H9 cells): 340000 pM
Inhibition of syncytium formation, ID50 (HIV-1 [3]): 340 pM
Inhibition of p24 activity (expression), ID50 (HIV-1 [4]): 370 pM
In Vivo Toxicity, LD50 (range) (CF1 mice): 5 to 7 mg/kg
hepatic hyperplasia (CF1 mice; 0.1-100 mg per 100 gm body weight every three days): moderate hepatic hyperplasia
Inhibition of Reverse Transcriptase (HIV-RT activity), ID50 (HIV-1 [5]): 460 pM
cytotoxicity (cells [6]): toxic; also recorded: cytotoxic side effects
